According to EP1676575A2, “MUCIN PRODUCTION INHIBITOR” (TAIHO PHARMACEUTICAL COMPANY LIMITED, priority 2003, dated 2005):

Legend:
NCI-H292 cells = experiment: Mucin production inhibitory action (EGF-stimulated NCI-H292 cells, mucin in culture supernatant by ELISA); assay type: cell-based, human; conditions: for inhibition at 1 µM / inhibition at 3 µM / inhibition at 10 µM: Homo sapiens, EGF 25 ng/mL, 48 hours, NCI-H292 cells, read-out: Percent inhibition of mucin production (%); for inhibition at 1 µM: Concentration 1 µM; for inhibition at 3 µM: Concentration 3 µM; for inhibition at 10 µM: Concentration 10 µM; for production of mucin (effect in words): summary of Table 1, EGF-stimulated NCI-H292 cells
Method: The test was carried out in accordance with a partially modified method of Takeyama et al. (Proc. Natl. Acad. Sci. USA, Vol. 96, P. 3081-3086, 1999). The specific procedure will be described as follows. NCI-H292 cells, which are human respiratory tract epithelial cell lines, were suspended in a 10%FCS-containing RPMI 1640 culture medium, and disseminated to a 12-well culture plate so that the cell concentration of each well was adjusted to 2 x 10^5 cell/well, followed by culturing for two days. Subsequently, the culture medium was changed to a 0.2%FCS-containing RPMI culture medium, followed by culturing for another two days. The thus-cultured cells were employed in the test. Each test drug and EGF (25 ng/mL) were added to each well, and the mucin level of the supernatant of the culture 48 hours after initiation of culturing was determined through the ELISA method. Percent inhibition (%) with regard to control value was calculated by supposing the difference produced by subtracting normal value from control value to be 100%. In this case, the control value is defined as the mucin amount in the culture supernatant to which only EGF was added, while the normal value is defined as the muchin amount in the culture supernatant containing neither of test drug and EGF. In addition, cilomilast (J. Pharmacol. Exp. Ther., Vol. 284, p. 420-426, 1998) and roflumilast (J. Pharmacol. Exp. Ther., Vol. 297, p. 267-279, 2001), which are typical phosphodiesterase (IV) inhibitors were also tested in a similar manner.

[1] = test system: goblet cells in the respiratory tract epithelium; experiment: Inhibitory effect on hyperplasia of goblet cells in the respiratory tract epithelium (Sephadex-induced, PAS staining); assay type: in vivo, Lewis Wistar rats; conditions: Fig. 1; oral, once per day for seven days; Sephadex-treated rats; numbers only in the figure
Method: The test was carried out in accordance with a partially modified method of Matsubara et al. (Int. Arch. Allergy Immunol., Vol. 116, p. 67-75, 1998). The specific procedure will be described as follows. To each of the 7-week old male Lewis Wistar rats, a Sephadex suspension (0.1 mg/mL/head) was intravenously administered (total three times: day 0, 2, and 5). Two days after the final administration, the rat was slaughtered by exsanguination under anesthetic with pentobarbital. The lung tissue was extirpated from the rat and immersed in a neutral formalin buffer for fixation. […] The ratio of the PAS-stained positive area to the respiratory tract epithelium was calculated by use of an image analysis software (Winroof). Each test compound was suspended in 0.5% hydroxypropylmethyl cellulose (HPMC), and the suspension was orally administered once per day for continuous seven days from the start of administration of Sephadex. In the Figure, numerical data are represented by mean value ± standard deviation (each group: 11-12 samples).

Brown Norway rats = experiment: Inhibitory effect on hyper-secretion of respiratory tract mucus (LPS-induced, mucus in BALF by UEA-1 lectin assay); assay type: in vivo; conditions: mean ± standard deviation; for Mucus level of BALF: LPS 100 µg intratracheal, 6 samples; for Percent inhibition (% ): mucus level of BALF vs control and normal
Method: The procedure of the test was based on a partially modified method of Tesfaigzi et al. (Am. J. Physiol. Lung Cell Mol. Physiol., Vol. 279, p. L1210-L1217, 2000). The specific procedure will be described as follows. To each of the 7-week male Brown Norway rats, LPS (derived from E. coli., strain 0111: B4) 100 µg was intratracheally administered under anesthetic with ether, thereby inducing inflammation. Two days after administration of LPS, the rat was slaughtered under anesthetic with pentobarbital, and the extirpated respiratory tract was washed with PBS containing 5mM EDTA and 5mM dithiothreitol (3 mL). The amount of mucus contained in the collected BALF was determined through a lectin assay method employing UEA-1. Each test drug was suspended in a 0.5% HPMC, and the suspension was orally administered one hour before administration of LPS and on the following day. In Table 2, numerical data are represented by mean value ± standard deviation (each group: 6 samples). Percent inhibition (%) was calculated in the same way as in Test Example 1.

`COc1ccc([C@]2(C#N)CC[C@@H](C(=O)O)CC2)cc1OC1CCCC1` [Cilomilast, cilomilast, reference compound] showed an inhibition at 1 µM (NCI-H292 cells) of -21.4%, an inhibition at 3 µM (NCI-H292 cells) of -17.2% and an inhibition at 10 µM (NCI-H292 cells) of -35.2%. The “production of mucin (effect in words)” value (NCI-H292 cells) was “promoted production of mucin”.

With `COc1ccc(-c2nc3cc(-n4cncn4)ccc3[nH]2)cc1OCC1CC1` [Compound 1] the “hyperplasia of goblet cells (effect in words)” value [1] was “inhibitory effect”, the inhibition at 1 µM (NCI-H292 cells) was 18.1% and the inhibition at 3 µM (NCI-H292 cells) was 49.4%. For the same compound, the inhibition at 10 µM (NCI-H292 cells) was 88.6%, the “Mucus level of BALF” value (Brown Norway rats; 10 mg/kg oral) was 202.4 ± 93.1 ng/mL and the “Percent inhibition (% )” value (Brown Norway rats; 10 mg/kg oral) was 53.2 ± 25.7%. For the same compound, the “Mucus level of BALF” value (Brown Norway rats; 30 mg/kg oral) was 166.6 ± 43.6 ng/mL and the “Percent inhibition (% )” value (Brown Norway rats; 30 mg/kg oral) was 63.0 ± 12.0%.

`COc1ccc(-c2nc3cc(-n4cncn4)ccc3[nH]2)cc1OC1CCCC1` [Compound 2] was tested, and the inhibition at 1 µM (NCI-H292 cells) was 57.1%, the inhibition at 3 µM (NCI-H292 cells) was 53.3% and the inhibition at 10 µM (NCI-H292 cells) was 80.8%.

For `COc1ccc(-c2nc3cc(-n4cncn4)ccc3[nH]2)cc1OC` [Compound 3], the inhibition at 1 µM (NCI-H292 cells) was 60%, the inhibition at 3 µM (NCI-H292 cells) was 74.9% and the inhibition at 10 µM (NCI-H292 cells) was 83.9%.

In the case of `COc1cc(-c2nc3cc(-n4cncn4)ccc3[nH]2)ccc1OCC1CC1` [Compound 4], the inhibition at 1 µM (NCI-H292 cells) is reported as 22.7% and the inhibition at 3 µM (NCI-H292 cells) is reported as 48.8%.

In the case of `COc1ccc(-c2nc3cc(-n4cncn4)ccc3[nH]2)cc1OCC(C)C` [Compound 6], the inhibition at 1 µM (NCI-H292 cells) is reported as 15.4%, the inhibition at 3 µM (NCI-H292 cells) is reported as 51.4% and the inhibition at 10 µM (NCI-H292 cells) is reported as 102%.

`O=C(Nc1c(Cl)cncc1Cl)c1ccc(OC(F)F)c(OCC2CC2)c1` [Roflumilast, roflumilast, reference compound] gave an inhibition at 1 µM (NCI-H292 cells) of -37.4%, an inhibition at 3 µM (NCI-H292 cells) of -28.7% and an inhibition at 10 µM (NCI-H292 cells) of -16.8%. The “production of mucin (effect in words)” value (NCI-H292 cells) was “promoted production of mucin”.
